From patent US12312347B2, “Azaindole derivative and use thereof as FGFR and C-Met inhibitor” (Wuxi Life Fountain Biotech Co., Ltd, priority 2018, dated 2025)
Structures can show the parent of a compound that is named as a salt.

What was measured:
Type in all cases: biochemical
human FGFR1 = molecular target: T1, human FGFR1 (Homo sapiens, UniProt P11362); test: 33P isotope-labeled kinase activity test, FGFR1; details: ATP 5 μM
T1 construct: purchased Invitrogen PV3146
Description: (§1) The inhibitory activities of the tested compounds on human FGFR1, FGFR4, and c-Met were evaluated by the IC50 values measured using ^33P isotope-labeled kinase activity test (Reaction Biology Corp).
(§2) Buffer condition: 20 mM Hepes (pH 7.5), 10 mM MgCl2, 1 mM EGTA, 0.02% Brij35, 0.02 mg/mL BSA, 0.1 mM Na3VO4, 2 mM DTT, 1% DMSO.
Test procedure: The test compounds were dissolved in DMSO at room temperature and formulated to be 10 mM solutions for later use. The substrates were dissolved in freshly prepared buffer, and kinases to be tested were added and mixed well. The test compounds dissolved in DMSO were added to the above mixed reaction solutions by acoustic technique (Echo 550). […] After incubation for 15 min, ^33P-ATP (activity 0.01 μCi/μL, corresponding concentrations are listed in Table 1) was added to start the reaction. Supplier item number, batch number, as well as the concentration information in the reaction solution of FGFR1, FGFR4, c-Met and substrates thereof are listed in Table 1. […] The kinase activity data are expressed by comparison between the kinase activity in the test compound group and the kinase activity in the blank group (containing DMSO only). IC50 values were obtained by curve fitting with Prism4 software (GraphPad).

human FGFR4 = molecular target: T2, human FGFR4 (Homo sapiens, UniProt P22455); test: 33P isotope-labeled kinase activity test, FGFR4; details: ATP 100 μM
T2 construct: purchased Invitrogen P3054
Description: as §1, §2
(§3) Test procedure: The test compounds were dissolved in DMSO at room temperature and formulated to be 10 mM solutions for later use. The substrates were dissolved in freshly prepared buffer, and kinases to be tested were added and mixed well. The test compounds dissolved in DMSO were added to the above mixed reaction solutions by acoustic technique (Echo 550). The concentration of the compound in reaction solution was 1 μM, […], 3.91 nM, 0.977 nM, 0.244 nM, 0.061 nM, 0.0153 nM, 0.00381 nM or 10 μM, 2.50 μM, 0.62 μM, 0.156 μM, 39.1 nM, 9.8 nM, 2.4 nM, 0.61 nM, 0.15 nM, 0.038 nM. After incubation for 15 min, ^33P-ATP (activity 0.01 μCi/μL, corresponding concentrations are listed in Table 1) was added to start the reaction. Supplier item number, batch number, as well as the concentration information in the reaction solution of FGFR1, FGFR4, c-Met and substrates thereof are listed in Table 1. […] The kinase activity data are expressed by comparison between the kinase activity in the test compound group and the kinase activity in the blank group (containing DMSO only). IC50 values were obtained by curve fitting with Prism4 software (GraphPad).

human c-Met = molecular target: T3, human c-Met (Homo sapiens, UniProt P08581); test: 33P isotope-labeled kinase activity test, c-Met; details: ATP 10 μM
T3 construct: purchased Invitrogen PV3143
Description: as §1, §2, §3

T2 sequence (P22455 22-802): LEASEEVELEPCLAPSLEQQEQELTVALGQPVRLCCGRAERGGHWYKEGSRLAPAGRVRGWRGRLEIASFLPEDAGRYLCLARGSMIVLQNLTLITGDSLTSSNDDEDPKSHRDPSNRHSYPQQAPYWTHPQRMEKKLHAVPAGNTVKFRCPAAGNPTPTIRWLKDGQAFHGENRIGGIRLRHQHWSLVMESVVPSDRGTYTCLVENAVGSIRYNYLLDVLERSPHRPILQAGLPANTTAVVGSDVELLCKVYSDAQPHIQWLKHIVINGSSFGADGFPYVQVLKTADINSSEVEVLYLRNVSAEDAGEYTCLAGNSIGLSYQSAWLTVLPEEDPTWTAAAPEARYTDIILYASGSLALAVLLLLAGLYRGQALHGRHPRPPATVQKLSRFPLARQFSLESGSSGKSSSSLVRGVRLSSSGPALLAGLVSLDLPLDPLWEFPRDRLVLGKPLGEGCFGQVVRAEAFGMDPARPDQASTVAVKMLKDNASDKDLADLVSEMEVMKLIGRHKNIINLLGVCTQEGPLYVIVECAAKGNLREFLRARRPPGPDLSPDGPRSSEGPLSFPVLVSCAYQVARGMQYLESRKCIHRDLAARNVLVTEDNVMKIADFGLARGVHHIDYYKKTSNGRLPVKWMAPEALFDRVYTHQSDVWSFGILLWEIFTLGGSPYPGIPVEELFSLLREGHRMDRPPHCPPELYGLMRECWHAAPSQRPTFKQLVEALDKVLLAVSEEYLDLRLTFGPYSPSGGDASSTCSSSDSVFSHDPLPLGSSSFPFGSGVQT
T3 sequence (P08581 25-1390): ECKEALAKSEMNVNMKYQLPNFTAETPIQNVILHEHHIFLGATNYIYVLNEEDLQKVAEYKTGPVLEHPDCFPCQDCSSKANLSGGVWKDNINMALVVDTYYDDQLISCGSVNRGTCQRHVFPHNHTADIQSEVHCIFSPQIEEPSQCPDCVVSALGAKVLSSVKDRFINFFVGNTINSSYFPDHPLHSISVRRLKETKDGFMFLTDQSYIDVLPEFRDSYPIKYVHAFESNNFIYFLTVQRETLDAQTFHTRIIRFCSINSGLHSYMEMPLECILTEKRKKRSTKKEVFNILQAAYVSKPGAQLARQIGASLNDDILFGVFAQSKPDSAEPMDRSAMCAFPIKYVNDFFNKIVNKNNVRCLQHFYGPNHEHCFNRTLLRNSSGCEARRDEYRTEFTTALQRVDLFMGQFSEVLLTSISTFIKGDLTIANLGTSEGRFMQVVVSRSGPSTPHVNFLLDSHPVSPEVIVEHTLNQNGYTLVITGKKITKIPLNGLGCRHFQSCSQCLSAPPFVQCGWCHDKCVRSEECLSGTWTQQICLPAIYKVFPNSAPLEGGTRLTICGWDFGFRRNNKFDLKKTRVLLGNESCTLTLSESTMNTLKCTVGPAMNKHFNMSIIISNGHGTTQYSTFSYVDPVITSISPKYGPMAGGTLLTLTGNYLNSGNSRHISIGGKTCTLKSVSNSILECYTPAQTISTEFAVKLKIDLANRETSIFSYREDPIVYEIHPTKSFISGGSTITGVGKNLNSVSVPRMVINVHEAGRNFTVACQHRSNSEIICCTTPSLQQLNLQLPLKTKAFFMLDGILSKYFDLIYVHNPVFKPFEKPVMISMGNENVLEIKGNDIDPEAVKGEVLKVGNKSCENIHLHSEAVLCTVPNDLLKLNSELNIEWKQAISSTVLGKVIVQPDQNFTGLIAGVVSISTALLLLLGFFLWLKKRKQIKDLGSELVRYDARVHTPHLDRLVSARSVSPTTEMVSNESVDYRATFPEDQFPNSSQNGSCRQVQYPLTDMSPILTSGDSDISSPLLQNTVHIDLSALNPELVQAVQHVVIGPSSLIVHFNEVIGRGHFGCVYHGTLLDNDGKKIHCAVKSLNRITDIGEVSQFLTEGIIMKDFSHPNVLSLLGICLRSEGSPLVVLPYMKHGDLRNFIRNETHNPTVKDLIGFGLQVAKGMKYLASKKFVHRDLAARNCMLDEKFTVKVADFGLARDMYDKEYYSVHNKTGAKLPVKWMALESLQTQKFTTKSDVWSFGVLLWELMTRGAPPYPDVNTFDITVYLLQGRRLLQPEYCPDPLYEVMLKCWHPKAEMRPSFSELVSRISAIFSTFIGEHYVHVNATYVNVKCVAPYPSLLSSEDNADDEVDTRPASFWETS
T1 sequence (P11362 22-822): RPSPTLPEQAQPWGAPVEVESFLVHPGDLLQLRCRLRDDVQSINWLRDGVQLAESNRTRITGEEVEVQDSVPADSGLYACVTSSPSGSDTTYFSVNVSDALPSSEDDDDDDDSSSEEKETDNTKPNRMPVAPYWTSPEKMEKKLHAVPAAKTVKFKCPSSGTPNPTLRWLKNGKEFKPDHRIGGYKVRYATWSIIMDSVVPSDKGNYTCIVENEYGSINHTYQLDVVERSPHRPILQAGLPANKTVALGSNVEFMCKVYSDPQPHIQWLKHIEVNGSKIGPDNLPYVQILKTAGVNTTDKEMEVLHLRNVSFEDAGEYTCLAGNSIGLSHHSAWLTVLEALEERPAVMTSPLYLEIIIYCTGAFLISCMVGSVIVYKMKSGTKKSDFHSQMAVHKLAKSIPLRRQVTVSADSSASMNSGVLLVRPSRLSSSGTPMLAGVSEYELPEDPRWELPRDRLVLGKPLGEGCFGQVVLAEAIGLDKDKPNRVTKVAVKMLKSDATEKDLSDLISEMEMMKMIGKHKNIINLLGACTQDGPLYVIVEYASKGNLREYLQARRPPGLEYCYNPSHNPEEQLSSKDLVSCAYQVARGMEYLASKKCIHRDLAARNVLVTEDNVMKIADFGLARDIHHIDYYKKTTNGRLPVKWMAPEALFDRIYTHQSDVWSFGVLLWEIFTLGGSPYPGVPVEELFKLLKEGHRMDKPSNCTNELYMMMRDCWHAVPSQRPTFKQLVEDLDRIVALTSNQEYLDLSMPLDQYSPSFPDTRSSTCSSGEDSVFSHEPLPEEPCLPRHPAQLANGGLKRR

Compound	IC50 (human FGFR1) [nM]	IC50 (human FGFR4) [nM]	IC50 (human c-Met) [nM]
CCN1CC(n2cc(-c3cnc4[nH]cc(Cc5c(F)c(OC)cc(OC)c5F)c4c3)cn2)C1 [Trifluoroacetate salt of embodiment 25]	2.1	31.9	16.9
COc1cc(OC)c(F)c(Cc2c[nH]c3ncc(-c4cnn(C5CCN(S(C)(=O)=O)CC5)c4)cc23)c1F [Trifluoroacetate salt of embodiment 18]	–	29.7	16.1
COc1cc(OC)c(F)c(Cc2c[nH]c3ncc(-c4cnn(C5CCN(C6COC6)CC5)c4)cc23)c1F [Trifluoroacetate salt of embodiment 15]	1.94	25.9	16
COc1cc(OC)c(F)c(Cc2c[nH]c3ncc(-c4cnn(S(C)(=O)=O)c4)cc23)c1F [Trifluoroacetate salt of embodiment 30]	2.1	28.2	169
COc1cc(OC)c(F)c(Cc2c[nH]c3ncc(-c4cnn(CCCNC(C)C)c4)cc23)c1F [Hydrochloride of embodiment 72]	–	53.1	70.8
CCN1CCC(n2cc(-c3cnc4[nH]cc(Cc5c(F)c(OC)cc(OC)c5F)c4c3)cn2)CC1 [Trifluoroacetate salt of embodiment 12]	–	36	3.17
COc1cc(OC)c(F)c(Cc2n[nH]c3ncc(-c4cnn(CCO)c4)cc23)c1F [Trifluoroacetate salt of embodiment 1]	–	39.7	1290
COc1cc(OC)c(F)c(Cc2c[nH]c3ncc(-c4cncc(C5=CCNCC5)n4)cc23)c1F [Hydrochloride of embodiment 63]	9.41	–	–
COc1cc(OC)c(F)c(Cc2c[nH]c3ncc(-c4cn(C)nc4C#N)cc23)c1F [Trifluoroacetate salt of embodiment 44]	–	32.3	191
COc1cc(OC)c(Cl)c(Cc2c[nH]c3ncc(-c4cnn(C5CCNCC5)c4)cc23)c1Cl [Trifluoroacetate salt of embodiment 49]	–	529	8.8
CC(c1c(Cl)ccc(F)c1Cl)c1c[nH]c2ncc(-c3cnn(CCO)c3)cc12 (single isomer, unassigned) [Comparative Compound 1a, reference compound]	–	> 10000	758
CCN1CCC(n2cc(-c3cnc4[nH]cc(Cc5c(F)c(OC)cc(OC)c5F)c4c3)c(C)n2)CC1 [Hydrochloride of embodiment 37]	–	52.4	33
CC(c1c(Cl)ccc(F)c1Cl)c1c[nH]c2ncc(-c3cnn(CCO)c3)cc12 (stereo not drawn) [Comparative Compound 1b, reference compound]	–	5090	11.1
CCN1CCC(n2cc(-c3cnc4[nH]nc(Cc5c(F)ccc(OC)c5F)c4c3)cn2)CC1 [Hydrochloride of embodiment 4]	–	799	177
COc1cc(OC)c(F)c(Cc2c[nH]c3ncc(-c4cn(C5CCN(C)CC5)nc4C#N)cc23)c1F [Hydrochloride of embodiment 43]	–	61.7	57.1
COc1ccc(F)c(Cc2c[nH]c3ncc(-c4cn(C5CCNCC5)nc4C)cc23)c1F [Hydrochloride of embodiment 36]	–	684	27.3
COc1cc(OC)c(F)c(Cc2c[nH]c3ncc(-c4cnn(C5CNC5)c4)cc23)c1F [Trifluoroacetate salt of embodiment 24]	–	252	76.5
CNC(=O)c1cc(Cc2c[nH]c3ncc(-c4cnn(C5CCNCC5)c4)cc23)c(Cl)c(OC)c1 [Trifluoroacetate salt of embodiment 20]	–	158	12
CCN1CCC(n2cc(-c3cnc4[nH]cc(Cc5c(F)ccc(OC)c5F)c4c3)cn2)CC1 [Embodiment 38]	–	599	9.1
COc1cc(OC)c(F)c(Cc2c[nH]c3ncc(-c4cnn(C5CCOCC5)c4)cc23)c1F [Trifluoroacetate salt of embodiment 22]	–	29.2	23.8
CCN1CCC(n2cc(-c3cnc4[nH]c(C)c(Cc5c(F)c(OC)cc(OC)c5F)c4c3)cn2)CC1 [Hydrochloride of embodiment 74]	–	56.4	4.2
COc1cc(OC)c(F)c(Cc2c[nH]c3ncc(-c4cnn(C5CN(C(C)=O)C5)c4)cc23)c1F [Trifluoroacetate salt of embodiment 26]	–	35.3	13.8
COc1cc(OC)c(F)c(Cc2n[nH]c3ncc(-c4cnn(C5CCNCC5)c4)cc23)c1F [Hydrochloride of embodiment 2]	–	137	7.8
CCN1CCC(n2cc(-c3cnc4[nH]cc(Cc5c(F)ccc(OC)c5F)c4c3)c(C#N)n2)CC1 [Embodiment 45]	–	351	9.1
CCN1CCC(n2cc(-c3cnc4[nH]nc(Cc5c(F)c(OC)cc(OC)c5F)c4c3)cn2)CC1 [Hydrochloride of embodiment 3]	–	148	76.1
COc1ccc(Cl)c(Cc2c[nH]c3ncc(-c4cnn(C5CCNCC5)c4)cc23)c1Cl [Trifluoroacetate salt of embodiment 10]	–	1710	8.7
COc1cc(Cc2c[nH]c3ncc(-c4cnn(C5CCNCC5)c4)cc23)cc(OC)c1 [Trifluoroacetate salt of embodiment 11]	17.1	550	–

More lines, in order of falling IC50 (human FGFR4), values ahead:

IC50 (human FGFR1) [nM]	IC50 (human FGFR4) [nM]	IC50 (human c-Met) [nM]	Compound
–	23.5	14	COc1cc(OC)c(F)c(Cc2c[nH]c3ncc(-c4cn(C5CCN(C)CC5)nc4C)cc23)c1F [Trifluoroacetate salt of embodiment 35]
0.4	21.5	14.6	CCN1CCC(n2ncc(-c3cnc4[nH]cc(Cc5c(F)c(OC)cc(OC)c5F)c4c3)c2Cl)CC1 [Hydrochloride of embodiment 40]
–	20.3	47.2	COc1cc(OC)c(F)c(Cc2c[nH]c3ncc(-c4cnn(C5CCNCC5)c4)nc23)c1F [Trifluoroacetate salt of embodiment 5]
0.04	15.2	74.3	CCN1CCC(n2cc(-c3cnc4[nH]cc(Cc5c(F)c(OC)cc(OC)c5F)c4n3)cn2)CC1 [Trifluoroacetate salt of embodiment 6]
0.06	13.7	137	COc1cc(OC)c(F)c(Cc2c[nH]c3ncc(-c4cnc5c(c4)CNCC5)cc23)c1F [Trifluoroacetate salt of embodiment 52]
–	13.5	6.2	COc1cc(OC)c(F)c(Cc2c[nH]c3ncc(-c4cn(C5CCNCC5)nc4C)cc23)c1F [Embodiment 32]
–	13.1	6.7	COc1cc(OC)c(F)c(Cc2c[nH]c3ncc(-c4cnn(C5CN(CCO)C5)c4)cc23)c1F [Trifluoroacetate salt of embodiment 27]
–	10.6	3.26	CCN1CCC(n2ccc(-c3cnc4[nH]cc(Cc5c(F)c(OC)nc(OC)c5F)c4c3)n2)CC1 [Embodiment 75]
–	10	53.5	COc1cc(OC)c(F)c(Cc2c[nH]c3ncc(-c4cnn(CCNC(C)C)c4)cc23)c1F [Hydrochloride of embodiment 68]
–	9.8	141	COc1cc(OC)c(F)c(Cc2c[nH]c3ncc(-c4ccnc(N5CCN(C)CC5)c4)cc23)c1F [Embodiment 78]
–	8.6	132	COc1cc(OC)c(F)c(Cc2c[nH]c3ncc(-c4ccc(N5CCN(C)CC5)nc4)cc23)c1F [Trifluoroacetate salt of embodiment 62]
–	7.5	11.6	COc1cc(OC)c(F)c(Cc2c[nH]c3ncc(-c4cnn(C5CCN(C(C)=O)CC5)c4)cc23)c1F [Trifluoroacetate salt of embodiment 17]
–	3.87	–	COc1cc(OC)c(F)c(Cc2c[nH]c3ncc(-c4cnn(CCS(C)(=O)=O)c4)cc23)c1F [Trifluoroacetate salt of embodiment 76]
–	3.41	–	COc1nc(OC)c(F)c(Cc2c[nH]c3ncc(-c4cnn(CCS(C)(=O)=O)c4)cc23)c1F [Trifluoroacetate salt of embodiment 77]
–	2.7	135	CCN1CCC(c2cncc(-c3cnc4[nH]cc(Cc5c(F)c(OC)cc(OC)c5F)c4c3)n2)CC1 [Hydrochloride of embodiment 65]
